Measurements: patent US20030234356A1, “Method and apparatus for the detection of noncovalent interactions by mass spectrometry-based diffusion measurements” (priority 2002, published 2003)
“Also recorded” adds a separate entry of the source.

Legend:
lysozyme = biological target: T1, lysozyme (Gallus gallus, UniProt P00698); assay: ESI-MS Taylor dispersion screen of a mixture of six sugars for noncovalent binding to lysozyme; conditions: six sugars monitored simultaneously
T1 construct: purchased Sigma (St. Louis, Mo.)
T1 sequence (P00698 19-147): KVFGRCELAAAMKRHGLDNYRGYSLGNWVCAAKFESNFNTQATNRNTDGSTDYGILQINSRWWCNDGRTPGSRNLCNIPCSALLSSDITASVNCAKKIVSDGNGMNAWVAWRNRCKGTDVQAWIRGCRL
Method: (§1) Based on the theoretical considerations described above, we will now describe details of an apparatus that allows the measurement of dispersion profiles by ESI-MS or APCI-MS. A schematic diagram of the apparatus is shown generally at 10 in FIG. 2. The measurements described below were carried out by using a 3.013 m long Teflon laminar flow tube (Upchurch, Oak Harbor, Wash.) shown as LFT or 12 in FIG. 2. The inner diameter (i.d.) of this LFT was determined gravimetrically to be 258.2 μm. In order to measure a diffusion coefficient, a sharp initial boundary must be created between the carrier solution and the following analyte solution at the entrance of the flow tube (Equation 3). This was accomplished by using a valve mechanism shown in FIG. 2 as a “sliding block mechanism (SBM)” 14 developed by the inventors. The laminar flow tube (LFT) 12 is inserted into a Teflon block machined to accommodate a PEEK connector and ferrule (Upchurch, Oak Harbor, Wash.) so that the flow tube 12 extends through to the end of the block. Initially, the entrance to the flow tube 12 is aligned with an opening in a steel block into which a piece of PEEK tubing 16 (508 μm ID, length ≈0.5 m) is fitted, using another PEEK connector and ferrule. This second piece of tubing 16 is used as the inlet tube, forming a leak-proof connection between the inlet tube and the flow tube at the boundary between the steel and Teflon blocks.
An analyte reservoir 18 (shown as a syringe in FIG. 2 which also acts as a pump) connected to the inlet tube 16 can be used to fill the inlet tube 16 with analyte solution, and to pump this analyte solution through the LFT 12. Initially, however, a carrier solution reservoir (not shown) is connected to tube 16 for filling the laminar flow tube 12 with carrier solution. The analyte solution and carrier solution reservoirs are never connected to the laminar flow tube 16 at the same time. Subsequently, the Teflon block containing the flow tube is moved sideways, such that the two tubes 12 and 16 are no longer aligned and the entrance to the flow tube 12 is closed off by the steel block. The inlet tube 16 can now be filled with analyte solution from pump 18 (syringe S1) without disturbing the carrier solution in the flow tube 12. Then the Teflon block is returned to its original position, aligning the two tubes (12 and 16) and creating a sharp boundary between the analyte solution in the inlet tube and the carrier solution in the LFT 12. The i.d. of the inlet tube 16 was chosen to be larger than that of the flow tube 12 to ensure that the boundary between the two solutions would cover the entire cross-sectional area of the flow tube 12, even if the sliding block were slightly misaligned. […]

apo-myoglobin = biological target: T2, apo-myoglobin (Equus caballus, UniProt P68082); assay: ESI-MS Taylor dispersion (diffusion) measurement of noncovalent heme-protein binding in myoglobin; conditions: for noncovalent binding of heme to the protein: 24±1° C
T2 construct: purchased Sigma (St. Louis, Mo.)
T2 sequence (P68082 2-154 limits assumed): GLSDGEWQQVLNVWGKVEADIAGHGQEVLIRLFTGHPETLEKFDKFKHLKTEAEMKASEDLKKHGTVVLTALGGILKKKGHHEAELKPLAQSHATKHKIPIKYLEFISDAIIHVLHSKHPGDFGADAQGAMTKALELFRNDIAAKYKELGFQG
Method: as §1
An analyte reservoir 18 (shown as a syringe in FIG. 2 which also acts as a pump) connected to the inlet tube 16 can be used to fill the inlet tube 16 with analyte solution, and to pump this analyte solution through the LFT 12. Initially, however, a carrier solution reservoir (not shown) is connected to tube 16 for filling the laminar flow tube 12 with carrier solution. The analyte solution and carrier solution reservoirs are never connected to the laminar flow tube 16 at the same time. Subsequently, the Teflon block containing the flow tube is moved sideways, such that the two tubes 12 and 16 are no longer aligned and the entrance to the flow tube 12 is closed off by the steel block. The inlet tube 16 can now be filled with analyte solution from pump 18 (syringe S1) without disturbing the carrier solution in the flow tube 12. Then the Teflon block is returned to its original position, aligning the two tubes (12 and 16) and creating a sharp boundary between the analyte solution in the inlet tube and the carrier solution in the LFT 12. The i.d. of the inlet tube 16 was chosen to be larger than that of the flow tube 12 to ensure that the boundary between the two solutions would cover the entire cross-sectional area of the flow tube 12, even if the sliding block were slightly misaligned. The use of a commercially available HPLC injection valve with a sample loop of suitable size may serve the same purpose as the described sliding block mechanism.
For the four examples given below, the analyte solution from syringe S1 is pumped through the laminar flow tube by using a Harvard syringe pump (South Nattick, Mass.). The outlet of the flow tube 12 is connected to two fused silica capillaries 26 and 28 (i.d. 100 μm, o.d. 165 μm, Polymicro Technologies, Phoenix, Ariz.) at a mixer 30 located at the end of tube 12. The first of these capillaries 26 has a length of 5 cm and is connected to the ESI source of the mass spectrometer 22. For studies on myoglobin, the second capillary 28 was used to supplement the analyte near the end of the laminar flow tube 12 with a methanol/acetic acid (90:10 v/v) mixture from syringe S2 just before it reached the ESI ion source. This “make-up” solvent was delivered at a flow rate of 5 μL/min, for a total flow rate of 10 μL/min at the ion source. The residence time of the analyte solution in the final 5 cm capillary was only about 2 s and can therefore be neglected for the analysis (the value of l/{overscore (v)} is 1929 s). […]

[1] = absence vs presence of lysozyme
[2] = denaturing conditions (50% acetonitrile, pH 10)
[3] = native-like solvent conditions (no organic cosolvents, pH 10)
[4] = semi-denaturing conditions (30% acetonitrile, pH 10)

## CC(=O)N[C@H]1[C@H](O[C@H]2[C@H](O)[C@@H](NC(C)=O)C(O)O[C@@H]2CO)O[C@H](CO)[C@@H](O[C@@H]2O[C@H](CO)[C@@H](O)[C@H](O)[C@H]2NC(C)=O)[C@@H]1O (stereo partly shown) [chitotriose]
lysozyme; [1]
  change in dispersion profile when the protein was added: distinct change
lysozyme; absence vs presence of lysozyme, average of about ten measurements
  change of apparent diffusion coefficient upon addition of the protein: dramatic reduction; also recorded: significant change
lysozyme; without and with lysozyme
  noncovalent binding to lysozyme: binds noncovalently to lysozyme

## C=CC1=C(C)c2cc3[n-]c(cc4[n-]c(cc5nc(cc1n2)C(C)=C5C=C)c(C)c4CCC(=O)O)c(CCC(=O)O)c3C.[Fe+2] [heme]
apo-myoglobin; [2]
  fitted diffusion coefficient of heme compared with that of the protein in myoglobin solution: much larger diffusion coefficient
  noncovalent binding of heme to the protein: absent or extremely weak
apo-myoglobin; [3]
  fitted diffusion coefficient of heme compared with that of the protein in myoglobin solution: agree closely with each other
  noncovalent binding of heme to the protein: noncovalently bound to the protein
apo-myoglobin; [4]
  fitted diffusion coefficient of heme compared with that of the protein in myoglobin solution: almost identical
  noncovalent binding of heme to the protein: still bound to each other

## C[C@H](O)[C@H](O)[C@@H](O)[C@@H](O)C=O [rhamnose]
lysozyme; [1]
  change in dispersion profile when the protein was added: virtually no change
